Data set [1] deals with von Hippel-Lindau disease tumor suppressor/SWI/SNF-related matrix-associated actin-dependent regulator of chromatin subfamily A member 2 (Homo sapiens, UniProt P51531+P40337). Put plainly: PROTAC activity at SMARCA2/VHL1 in human HeLa cells assessed as protein degradation by Nano-Glo HiBiT lytic detection assay. The data set is classed as cell-based.
Data set [2] concerns the target von Hippel-Lindau disease tumor suppressor/SWI/SNF-related matrix-associated actin-dependent regulator of chromatin subfamily A member 4 (Homo sapiens, UniProt P51532+P40337). Put plainly: PROTAC activity at SMARCA4/VHL1 in human HeLa cells assessed as protein degradation by Nano-Glo HiBiT lytic detection assay. The data set is classed as cell-based.
Data set [3] in a line: PROTAC activity at SMARCA4/E3 ubiquitin ligase (unknown origin) assessed as protein degradation. Also on record: species or system Homo sapiens.
A short description of data set [4]: PROTAC activity at SMARCA2/E3 ubiquitin ligase (unknown origin) assessed as protein degradation. The arrangement: species or system Homo sapiens.
The nature of data set [5]: Drug uptake in tumor of human NCI-H838 cells xenografted SCID mouse model at 10 mg/kg, iv measured after 24 hrs by LC-MS/MS analysis. Type of data set: ADME, organism-based, Neoplasm. The conditions noted are these: read-out: Drug uptake.
The nature of data set [6]: Drug uptake in tumor of human NCI-H838 cells xenografted SCID mouse model at 10 mg/kg, iv measured after 96 hrs by LC-MS/MS analysis. Type of data set: ADME, organism-based, Neoplasm. As to conditions: read-out: Drug uptake. (In general: Xenograft models place foreign cells or tissue in a host animal.)
A short description of data set [7]: Plasma concentration in SCID mouse xenografted with human NCI-H838 cells at 10 mg/kg, iv measured after 96 hrs by LC-MS/MS analysis. Type of data set: ADME, organism-based.
Data set [8] can be described thus: Plasma concentration in SCID mouse xenografted with human NCI-H838 cells at 10 mg/kg, iv measured after 24 hrs by LC-MS/MS analysis. The data set is classed as ADME, organism-based.
The species entered for data set [9] is Homo sapiens. As to the kind of experiment: Selectivity ratio, ratio of DC50 for PROTAC activity at SMARCA2/E3 ubiquitin ligase (unknown origin) to DC50 for PROTAC activity at SMARCA4/E3 ubiquitin ligase (unknown origin.
The species named for data set [10] is Homo sapiens. Put plainly: PROTAC activity at SMARCA4/E3 ubiquitin ligase (unknown origin) assessed as maximal protein degradation.
For data set [11], the species on record is Homo sapiens. Put plainly: PROTAC activity at SMARCA2/E3 ubiquitin ligase (unknown origin) assessed as maximal protein degradation.

The term DC50 denotes the midpoint of the concentration-degradation curve. A word on the Emax: it is the maximal effect, on the per cent scale that the assay sets.

Each structure is given as a SMILES string.

Chain of von Hippel-Lindau disease tumor suppressor/SWI/SNF-related matrix-associated actin-dependent regulator of chromatin subfamily A member 4 (P51532 whole entry): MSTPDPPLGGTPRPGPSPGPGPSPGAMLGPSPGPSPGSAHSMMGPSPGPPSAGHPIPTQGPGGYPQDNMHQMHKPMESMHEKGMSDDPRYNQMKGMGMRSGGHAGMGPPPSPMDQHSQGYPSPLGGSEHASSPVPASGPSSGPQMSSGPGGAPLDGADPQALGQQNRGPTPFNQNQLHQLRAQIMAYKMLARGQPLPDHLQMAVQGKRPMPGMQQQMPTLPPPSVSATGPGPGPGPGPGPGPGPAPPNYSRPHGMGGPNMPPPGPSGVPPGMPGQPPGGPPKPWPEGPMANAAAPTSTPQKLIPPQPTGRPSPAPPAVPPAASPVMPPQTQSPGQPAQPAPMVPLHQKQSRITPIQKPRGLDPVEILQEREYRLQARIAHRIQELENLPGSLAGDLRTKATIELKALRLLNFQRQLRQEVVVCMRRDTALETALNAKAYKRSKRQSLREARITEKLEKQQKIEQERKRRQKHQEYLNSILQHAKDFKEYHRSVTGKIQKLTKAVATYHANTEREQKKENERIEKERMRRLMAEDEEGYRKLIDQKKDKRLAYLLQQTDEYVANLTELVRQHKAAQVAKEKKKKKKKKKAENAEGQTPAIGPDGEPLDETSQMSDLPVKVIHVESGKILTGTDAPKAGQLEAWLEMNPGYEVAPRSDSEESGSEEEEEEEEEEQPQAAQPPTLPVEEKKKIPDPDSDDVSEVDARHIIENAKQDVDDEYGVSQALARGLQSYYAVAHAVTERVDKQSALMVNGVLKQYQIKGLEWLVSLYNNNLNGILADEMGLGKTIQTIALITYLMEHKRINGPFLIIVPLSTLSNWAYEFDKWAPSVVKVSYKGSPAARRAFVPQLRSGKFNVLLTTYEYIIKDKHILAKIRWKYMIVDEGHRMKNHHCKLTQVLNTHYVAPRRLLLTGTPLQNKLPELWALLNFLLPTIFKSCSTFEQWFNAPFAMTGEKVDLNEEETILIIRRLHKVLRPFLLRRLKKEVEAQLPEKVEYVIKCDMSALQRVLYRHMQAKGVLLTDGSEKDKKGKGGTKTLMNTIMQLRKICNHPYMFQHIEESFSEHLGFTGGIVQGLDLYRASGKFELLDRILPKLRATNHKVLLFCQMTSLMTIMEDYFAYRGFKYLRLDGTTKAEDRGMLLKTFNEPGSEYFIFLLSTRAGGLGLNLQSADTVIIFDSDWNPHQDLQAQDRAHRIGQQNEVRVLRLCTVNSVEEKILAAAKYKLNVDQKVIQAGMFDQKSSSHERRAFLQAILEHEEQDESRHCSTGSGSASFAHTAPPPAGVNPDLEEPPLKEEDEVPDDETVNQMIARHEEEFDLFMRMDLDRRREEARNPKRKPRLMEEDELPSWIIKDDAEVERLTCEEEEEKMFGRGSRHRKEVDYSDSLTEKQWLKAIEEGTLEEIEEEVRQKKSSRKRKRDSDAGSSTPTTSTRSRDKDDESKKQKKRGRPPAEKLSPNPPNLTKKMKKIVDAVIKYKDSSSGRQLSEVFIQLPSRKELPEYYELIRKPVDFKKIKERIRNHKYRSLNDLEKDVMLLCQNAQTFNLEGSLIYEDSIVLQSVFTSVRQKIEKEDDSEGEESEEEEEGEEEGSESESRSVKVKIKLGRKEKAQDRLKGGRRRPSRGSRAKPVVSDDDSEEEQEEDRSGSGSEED
Chain of von Hippel-Lindau disease tumor suppressor/SWI/SNF-related matrix-associated actin-dependent regulator of chromatin subfamily A member 4 (P40337 whole entry): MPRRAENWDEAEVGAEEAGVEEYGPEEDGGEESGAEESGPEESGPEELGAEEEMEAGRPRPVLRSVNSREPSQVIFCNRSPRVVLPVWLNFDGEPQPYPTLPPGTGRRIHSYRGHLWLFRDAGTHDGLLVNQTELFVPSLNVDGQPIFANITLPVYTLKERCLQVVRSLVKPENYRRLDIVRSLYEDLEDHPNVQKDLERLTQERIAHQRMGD
Chain of von Hippel-Lindau disease tumor suppressor/SWI/SNF-related matrix-associated actin-dependent regulator of chromatin subfamily A member 2 (P51531 whole entry): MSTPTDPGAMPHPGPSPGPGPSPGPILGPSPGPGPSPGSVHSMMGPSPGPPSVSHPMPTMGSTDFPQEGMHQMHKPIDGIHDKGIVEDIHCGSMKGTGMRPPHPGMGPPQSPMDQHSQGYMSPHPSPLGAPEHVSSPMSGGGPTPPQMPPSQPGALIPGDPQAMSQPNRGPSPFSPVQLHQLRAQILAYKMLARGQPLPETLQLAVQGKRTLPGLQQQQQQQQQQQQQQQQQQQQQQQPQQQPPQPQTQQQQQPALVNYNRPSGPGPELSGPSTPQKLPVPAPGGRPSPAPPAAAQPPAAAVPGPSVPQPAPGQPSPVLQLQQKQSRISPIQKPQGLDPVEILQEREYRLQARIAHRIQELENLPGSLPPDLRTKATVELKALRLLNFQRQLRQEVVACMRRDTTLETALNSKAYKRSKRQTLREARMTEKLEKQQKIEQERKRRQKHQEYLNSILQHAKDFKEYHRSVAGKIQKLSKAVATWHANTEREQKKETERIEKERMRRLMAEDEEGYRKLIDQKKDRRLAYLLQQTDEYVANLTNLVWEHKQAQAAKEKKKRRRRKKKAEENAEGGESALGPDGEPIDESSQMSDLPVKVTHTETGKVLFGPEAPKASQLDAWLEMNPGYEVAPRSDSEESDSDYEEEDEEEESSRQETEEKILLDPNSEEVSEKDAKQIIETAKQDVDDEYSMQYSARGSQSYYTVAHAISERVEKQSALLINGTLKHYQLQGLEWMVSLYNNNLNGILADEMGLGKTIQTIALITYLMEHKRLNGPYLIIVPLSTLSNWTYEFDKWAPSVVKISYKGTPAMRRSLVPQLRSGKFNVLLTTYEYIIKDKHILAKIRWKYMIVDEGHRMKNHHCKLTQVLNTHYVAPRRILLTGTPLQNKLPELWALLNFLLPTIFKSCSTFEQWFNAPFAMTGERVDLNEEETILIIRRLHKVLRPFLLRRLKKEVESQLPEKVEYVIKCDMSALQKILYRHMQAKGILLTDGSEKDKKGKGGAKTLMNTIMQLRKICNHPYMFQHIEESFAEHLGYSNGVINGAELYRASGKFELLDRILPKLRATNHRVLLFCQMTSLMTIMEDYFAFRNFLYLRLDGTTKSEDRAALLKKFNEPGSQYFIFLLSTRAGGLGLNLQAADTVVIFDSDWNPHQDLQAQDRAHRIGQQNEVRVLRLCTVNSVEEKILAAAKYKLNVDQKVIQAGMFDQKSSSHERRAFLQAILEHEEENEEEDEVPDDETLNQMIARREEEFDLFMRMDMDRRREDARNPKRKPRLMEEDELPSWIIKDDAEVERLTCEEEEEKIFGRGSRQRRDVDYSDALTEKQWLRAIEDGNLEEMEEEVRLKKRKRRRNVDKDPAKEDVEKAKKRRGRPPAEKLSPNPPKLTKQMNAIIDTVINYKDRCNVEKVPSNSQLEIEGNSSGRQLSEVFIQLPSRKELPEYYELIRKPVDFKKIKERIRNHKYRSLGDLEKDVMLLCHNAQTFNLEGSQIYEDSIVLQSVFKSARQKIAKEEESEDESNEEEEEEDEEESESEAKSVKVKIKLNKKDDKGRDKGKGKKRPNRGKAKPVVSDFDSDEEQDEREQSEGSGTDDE
Chain of von Hippel-Lindau disease tumor suppressor/SWI/SNF-related matrix-associated actin-dependent regulator of chromatin subfamily A member 2 (P40337 whole entry): as the sequence (P40337 whole entry) above

For the compound `Cc1ncoc1-c1ccc([C@H](CN2CCOCC2)NC(=O)[C@@H]2C[C@@H](O)CN2C(=O)[C@@H](n2cc([C@H]3CC[C@H](CN4CCC(c5ccc6c(c5)-n5c(nc(=O)c7c(Cl)cccc75)C65CCCCC5)CC4)CC3)nn2)C(C)(C)C)cc1`, the 50% degradation concentration (DC50) is 1 nM in [1] and more than 1000 nM in [2].
On the same counts, the results for `Cc1ncsc1-c1ccc([C@H](C)NC(=O)[C@@H]2C[C@@H](O)CN2C(=O)[C@@H](n2cc([C@H]3CC[C@H](CN4CCC(c5ccc6c(c5)C5(CCCCC5)c5nc(=O)c7c(Br)cccc7n5-6)CC4)CC3)nn2)C(C)(C)C)cc1` are 0.15 nM and 2 nM.
Regarding `COCCOCCOCCOCCOC[C@H](NC(=O)[C@@H]1C[C@@H](O)CN1C(=O)[C@@H](n1cc([C@H]2CC[C@H](CN3CCC(c4ccc5c(c4)-n4c(nc(=O)c6c(Cl)cccc64)C54CCCCC4)CC3)CC2)nn1)C(C)(C)C)c1ccc(-c2scnc2C)cc1`, the results for the DC50 in data set [1] and in data set [2] were 3 nM and more than 1000 nM, respectively.
The like results for `Cc1ncsc1-c1ccc([C@H](CN2CC(C)(O)C2)NC(=O)[C@@H]2C[C@@H](O)CN2C(=O)[C@@H](n2cc([C@H]3CC[C@H](CN4CCC(c5ccc6c(c5)-n5c(nc(=O)c7c(Cl)cccc75)C65CCCCC5)CC4)CC3)nn2)C(C)(C)C)cc1` were, in that order, 2 nM and more than 1000 nM.
The like results for `Cc1ncsc1-c1ccc([C@H](CN2CCC(C(=O)O)CC2)NC(=O)[C@@H]2C[C@@H](O)CN2C(=O)[C@@H](n2cc([C@H]3CC[C@H](CN4CCC(c5ccc6c(c5)-n5c(nc(=O)c7c(Cl)cccc75)C65CCCCC5)CC4)CC3)nn2)C(C)(C)C)cc1` were, in that order, 111 nM and more than 1000 nM.
On the same counts, the results for `Cc1ncsc1-c1ccc([C@H](C)NC(=O)[C@@H]2C[C@@H](O)CN2C(=O)[C@@H](n2cc([C@H]3CC[C@H](CN4CCC(c5ccc6c(c5)-n5c(nc(=O)c7c(Br)cccc75)C65CCCCC5)CC4)CC3)nn2)C(C)(C)C)cc1` are 0.24 nM and 22 nM.
Take `Cc1ncsc1-c1ccc([C@H](C)NC(=O)[C@@H]2C[C@@H](O)CN2C(=O)[C@@H](NC(=O)[C@H]2CC[C@H](CN3CCC(c4ccc5c(c4)C4(CCCCC4)c4nc(=O)c6c(Cl)cccc6n4-5)CC3)CC2)C(C)(C)C)cc1`: the 50% degradation concentration (DC50) in [1] is 6.3 nM.
Still for that read-out and setting: the value for `Cc1ncsc1-c1ccc([C@H](C)NC(=O)[C@@H]2C[C@@H](O)CN2C(=O)[C@@H](NC(=O)[C@H]2CC[C@H](CN3CCC(c4ccc5c(c4)-n4c(nc(=O)c6c(Cl)cccc64)C54CCCCC4)CC3)CC2)C(C)(C)C)cc1` was 8 nM.
Take `Cc1ncsc1-c1ccc([C@H](CN2CCOCC2)NC(=O)[C@@H]2C[C@@H](O)CN2C(=O)[C@@H](n2cc([C@H]3CC[C@H](CN4CCC(c5ccc6c(c5)-n5c(nc(=O)c7c(Cl)cccc75)C65CCCCC5)CC4)CC3)nn2)C(C)(C)O)cc1`: the DC50 was 1 nM in data set [1] and more than 1000 nM in data set [2].
As to `Cc1ncsc1-c1ccc([C@H](C)NC(=O)[C@H]2C[C@@H](O)CN2C(=O)[C@@H](c2cc(N3CCC(CN4CCC(O[C@H]5C[C@H](Oc6cc(N7C8CCC7CN(c7cc(-c9ccccc9O)nnc7N)C8)ccn6)C5)CC4)CC3)no2)C(C)C)cc1`, the 50% degradation concentration (DC50) in data set [3] turned out to be 1.1 nM; in data set [4], 0.04 nM.
In the case of `Cc1ncsc1-c1ccc([C@H](C)NC(=O)[C@@H]2C[C@@H](O)CN2C(=O)[C@@H](n2cc([C@H]3CC[C@H](CN4CCC(c5ccc6c(c5)-n5c(nc(=O)c7c(Cl)cccc75)C65CCCCC5)CC4)CC3)nn2)C(C)(C)C)cc1`, the half-maximal degradation concentration (DC50) in data set [1] came out at 0.3 nM; in [2], 115 nM.
On the same counts, the results for `Cc1ncsc1-c1ccc([C@H](CN2CCN(C)CC2)NC(=O)[C@@H]2C[C@@H](O)CN2C(=O)[C@@H](n2cc([C@H]3CC[C@H](CN4CCC(c5ccc6c(c5)-n5c(nc(=O)c7c(Cl)cccc75)C65CCCCC5)CC4)CC3)nn2)C(C)(C)C)cc1` are 1 nM and 62 nM.
In the case of `COCCOCCOCCOC[C@H](NC(=O)[C@@H]1C[C@@H](O)CN1C(=O)[C@@H](n1cc([C@H]2CC[C@H](CN3CCC(c4ccc5c(c4)-n4c(nc(=O)c6c(Cl)cccc64)C54CCCCC4)CC3)CC2)nn1)C(C)(C)C)c1ccc(-c2scnc2C)cc1`, the half-maximal degradation concentration (DC50) is 2 nM in data set [1] and more than 1000 nM in data set [2].
On the same counts, the results for `Cc1ncsc1-c1ccc([C@H](CN2CC(C(=O)O)C2)NC(=O)[C@@H]2C[C@@H](O)CN2C(=O)[C@@H](n2cc([C@H]3CC[C@H](CN4CCC(c5ccc6c(c5)-n5c(nc(=O)c7c(Cl)cccc75)C65CCCCC5)CC4)CC3)nn2)C(C)(C)C)cc1` are 228 nM and more than 1000 nM.
The like results for `Cc1ncsc1-c1ccc([C@H](C)NC(=O)[C@@H]2C[C@@H](O)CN2C(=O)[C@@H](n2cc([C@H]3CC[C@H](CN4CCC(c5ccc6c(c5)C5(CCCCC5)c5nc(=O)c7c(Cl)cccc7n5-6)CC4)CC3)nn2)C(C)(C)C)cc1` were, in that order, 0.29 nM and 3 nM.
Regarding `COCCOC[C@H](NC(=O)[C@@H]1C[C@@H](O)CN1C(=O)[C@@H](n1cc([C@H]2CC[C@H](CN3CCC(c4ccc5c(c4)-n4c(nc(=O)c6c(Cl)cccc64)C54CCCCC4)CC3)CC2)nn1)C(C)(C)C)c1ccc(-c2scnc2C)cc1`, the figures for the concentration at 24 h in data set [5] and in data set [8] were 255 ng/mL and 13 ng/mL, respectively. In addition, the concentration at 96 h was 79 ng/mL in data set [6] and 8.3 ng/mL in data set [7]. Further, the DC50 in data set [1] was 0.4 nM; in [2] it was more than 1000 nM.
Turning to `CC(C)(C)[C@@H](C(=O)N1C[C@H](O)C[C@H]1C(=O)N[C@@H](CN1CCOCC1)c1ccc(-c2ccccc2F)cc1)n1cc([C@H]2CC[C@H](CN3CCC(c4ccc5c(c4)-n4c(nc(=O)c6c(Cl)cccc64)C54CCCCC4)CC3)CC2)nn1`, the 50% degradation concentration (DC50) in data set [1] was 1 nM; in data set [2], 222 nM.
As to `Cc1ncsc1-c1ccc(CNC(=O)[C@@H]2C[C@@H](O)CN2C(=O)[C@@H](NC(=O)C2(F)CC2)C(C)(C)C)c(OCCOc2ccc(CN3CCN(c4cc(-c5ccccc5O)nnc4N)CC3)cc2)c1`, in the data set filed under Homo sapiens [9], the Ratio stood at 2. Moreover, the half-maximal degradation concentration (DC50) in data set [3] is 11 nM; in [4], 6 nM. Besides, the Emax in the data set filed under Homo sapiens [10] and in the data set listed under Homo sapiens [11] was more than 95% each time.
In the case of `Cc1ccccc1-c1ccc([C@H](CN2CCOCC2)NC(=O)[C@@H]2C[C@@H](O)CN2C(=O)[C@@H](n2cc([C@H]3CC[C@H](CN4CCC(c5ccc6c(c5)-n5c(nc(=O)c7c(Cl)cccc75)C65CCCCC5)CC4)CC3)nn2)C(C)(C)C)cc1`, the half-maximal degradation concentration (DC50) in [1] worked out at 8 nM; in [2], 789 nM.
Regarding `CC(C)(C)[C@@H](C(=O)N1C[C@H](O)C[C@H]1C(=O)N[C@@H](CN1CCOCC1)c1ccc(-c2ccccc2)cc1)n1cc([C@H]2CC[C@H](CN3CCC(c4ccc5c(c4)-n4c(nc(=O)c6c(Cl)cccc64)C54CCCCC4)CC3)CC2)nn1`, the values for the 50% degradation concentration (DC50) in data set [1] and in data set [2] were 5 nM and 430 nM, respectively.
The like results for `Cc1ncsc1-c1ccc([C@H](CN2CCC(F)(F)CC2)NC(=O)[C@@H]2C[C@@H](O)CN2C(=O)[C@@H](n2cc([C@H]3CC[C@H](CN4CCC(c5ccc6c(c5)-n5c(nc(=O)c7c(Cl)cccc75)C65CCCCC5)CC4)CC3)nn2)C(C)(C)C)cc1` were, in that order, 2 nM and more than 1000 nM.
The like results for `CC(C)(C)[C@@H](C(=O)N1C[C@H](O)C[C@H]1C(=O)N[C@@H](CN1CCOCC1)c1ccc(-c2ocnc2C(F)(F)F)cc1)n1cc([C@H]2CC[C@H](CN3CCC(c4ccc5c(c4)-n4c(nc(=O)c6c(Cl)cccc64)C54CCCCC4)CC3)CC2)nn1` were, in that order, 16 nM and more than 1000 nM.
For the compound `COCCOCCOC[C@H](NC(=O)[C@@H]1C[C@@H](O)CN1C(=O)[C@@H](n1cc([C@H]2CC[C@H](CN3CCC(c4ccc5c(c4)-n4c(nc(=O)c6c(Cl)cccc64)C54CCCCC4)CC3)CC2)nn1)C(C)(C)C)c1ccc(-c2scnc2C)cc1`, the results for the concentration at 24 h in data set [5] and in [8] were 113 ng/mL and 5.5 ng/mL, respectively. Also, the concentration at 96 h in [6] worked out at 53 ng/mL; in data set [7], 4.2 ng/mL. In addition, the 50% degradation concentration (DC50) in [1] was 0.4 nM; in data set [2], more than 1000 nM.
On to `Cc1ncsc1-c1ccc([C@H](CN2CC(C)(F)C2)NC(=O)[C@@H]2C[C@@H](O)CN2C(=O)[C@@H](n2cc([C@H]3CC[C@H](CN4CCC(c5ccc6c(c5)-n5c(nc(=O)c7c(Cl)cccc75)C65CCCCC5)CC4)CC3)nn2)C(C)(C)C)cc1`, for which the half-maximal degradation concentration (DC50) was 1 nM in data set [1] and more than 1000 nM in [2].
On the same counts, the results for `Cc1nc(C)c(-c2ccc([C@H](CN3CCOCC3)NC(=O)[C@@H]3C[C@@H](O)CN3C(=O)[C@@H](n3cc([C@H]4CC[C@H](CN5CCC(c6ccc7c(c6)-n6c(nc(=O)c8c(Cl)cccc86)C76CCCCC6)CC5)CC4)nn3)C(C)(C)C)cc2)s1` are 1 nM and more than 1000 nM.
For the compound `Cc1ncsc1-c1ccc([C@H](CN2CCS(=O)(=O)CC2)NC(=O)[C@@H]2C[C@@H](O)CN2C(=O)[C@@H](n2cc([C@H]3CC[C@H](CN4CCC(c5ccc6c(c5)-n5c(nc(=O)c7c(Cl)cccc75)C65CCCCC5)CC4)CC3)nn2)C(C)(C)C)cc1`, the DC50 in data set [1] was 5 nM; in [2] it was more than 1000 nM.
On the same counts, the results for `Cc1nc(C)c(-c2ccc([C@H](CN3CCOCC3)NC(=O)[C@@H]3C[C@@H](O)CN3C(=O)[C@@H](n3cc([C@H]4CC[C@H](CN5CCC(c6ccc7c(c6)-n6c(nc(=O)c8c(Cl)cccc86)C76CCCCC6)CC5)CC4)nn3)C(C)(C)C)cc2)o1` are 1 nM and 575 nM.

The values are drawn from ChEMBL document CHEMBL6096675 (J Med Chem, 2025).
